Tests used:
PIM3 = biological target: T1, PIM3 (Homo sapiens, UniProt Q86V86); assay: Pim-3 kinase enzymatic assay (Caliper LC3000, FAM-Pimtide substrate); format: biochemical; settings: 55 pM PIM3, 10 μM ATP, 90 minutes; read-out: PIM3 LC3K (Ki)
T1 construct: made in house
Description: (§1) Reaction Buffer contained 10 mM HEPES, pH 7.2, 10 mM MgCl2, 0.01% Tween 20, 2 mM DTT.
(§2) PIM reactions were carried out in a final volume of 10 μL per well in a 384-well plate. […] The separation of product and substrate was optimized by choosing voltages and pressure using Caliper's Optimizer software (Hopkinton, Mass.). The separation conditions used a downstream voltage of −500V, an upstream voltage of −2150V, and a screening pressure of −1.2 psi. […] Substrate conversion was calculated from the electrophoregram using HTS Well Analyzer software (Caliper Life Sciences, Hopkinton, Mass.). Ki values for the test compound were calculated.

PIM2 = biological target: T2, PIM2 (Homo sapiens, UniProt Q9P1W9); assay: Pim-2 kinase enzymatic assay (Caliper LC3000, FAM-Pimtide substrate); format: biochemical; settings: 50 pM PIM2, 10 μM ATP, 90 minutes; read-out: PIM2 LC3K (Ki)
T2 construct: made in house
Description: as §1, §2

BaF3 PIM1 cells = BaF3 PIM1 cells (Homo sapiens, UniProt P11309); assay: BaF3 PIM1 cell proliferation (Cell Titer Glo); format: cell-based; settings: incubated overnight; read-out: Prolif BaF3_PIM1 (IC50)
Description: (§3) BaF3 parental line was obtained from the DSMZ repository. BaF3 lines transfected with PIM1 or PIM2 were generated. Mouse IL-3 was purchased from R&D Systems. G418 was purchased from Clontech. Media for BaF3 parental line contained RPMI, 10% FBS, 2 mM L-Glutamine, 2 ng/mL mIL-3. Media for BaF3 PIM1 & 2 lines contained RPMI, 10% FBS, 2 mM L-Glutamine, […]. Media for MM1.S line contained RPMI, 10% FBS, 2 mM L-Glutamine.
(§4) BaF3 parental cells, BaF3 PIM1 cells, BaF3 PIM2 cells, and MM1.S cells were seeded at 2 k/well, 5 k/well, 5 k/well, and 10 k/well respectively, in a 384-well plate, at 45 μL/well. Test compound was added at 5 μL/well. BaF3 cells (parental and transfected) were incubated overnight, while MM1.S cells were incubated for 72 hours at 37° C., 5% CO2. Cell Titer Glo Reagent (Promega) was added at 50 μL/well, the plates were incubated for 30 minutes, and their luminescence read on an HT Analyst. IC50/EC50 values for the test compound were calculated.

BaF3 PIM2 cells = BaF3 PIM2 cells (Homo sapiens, UniProt Q9P1W9); assay: BaF3 PIM2 cell proliferation (Cell Titer Glo); format: cell-based; settings: incubated overnight; read-out: Prolif BaF3_PIM2 (IC50)
Description: as §3, §4

PIM1 = biological target: T3, PIM1 (Homo sapiens, UniProt P11309); assay: Pim-1 kinase enzymatic assay (Caliper LC3000, FAM-Pimtide substrate); format: biochemical; settings: 20 pM PIM1, 10 μM ATP, 90 minutes; read-out: PIM1 LC3K (Ki)
T3 construct: made in house
Description: as §1, §2

MM1.S cells = assay: MM1.S cell proliferation, 72 hours (Cell Titer Glo); format: cell-based; settings: Homo sapiens, 72 hours, read-out: Prolif MM1S ATP (EC50)
Description: as §3, §4

T2 sequence (Q9P1W9 whole entry): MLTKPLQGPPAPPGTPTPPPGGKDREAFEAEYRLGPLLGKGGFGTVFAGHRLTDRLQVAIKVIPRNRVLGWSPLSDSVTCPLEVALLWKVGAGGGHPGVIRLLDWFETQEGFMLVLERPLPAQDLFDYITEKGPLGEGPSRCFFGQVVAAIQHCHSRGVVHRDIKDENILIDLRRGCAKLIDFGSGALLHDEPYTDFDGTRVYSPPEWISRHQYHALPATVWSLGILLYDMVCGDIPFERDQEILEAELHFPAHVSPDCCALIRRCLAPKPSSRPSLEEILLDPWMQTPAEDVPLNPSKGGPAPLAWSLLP
Sequence of BaF3 PIM2 cells (Q9P1W9 whole entry, change not shown): as the sequence (Q9P1W9 whole entry) above
T3 sequence (P11309 whole entry): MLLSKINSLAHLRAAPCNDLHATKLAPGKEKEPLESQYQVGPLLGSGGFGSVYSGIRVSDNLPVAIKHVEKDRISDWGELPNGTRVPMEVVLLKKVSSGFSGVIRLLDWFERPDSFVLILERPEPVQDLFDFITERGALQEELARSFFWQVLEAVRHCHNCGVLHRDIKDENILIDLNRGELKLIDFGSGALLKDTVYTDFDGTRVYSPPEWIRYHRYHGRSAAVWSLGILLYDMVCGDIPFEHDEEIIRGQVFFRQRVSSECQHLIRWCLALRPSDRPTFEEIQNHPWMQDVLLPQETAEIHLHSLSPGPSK
Sequence of BaF3 PIM1 cells (P11309 whole entry, change not shown): as the sequence (P11309 whole entry) above

Compound | Ki (PIM3) [nM] | Ki (PIM2) [nM] | GI50 (BaF3 PIM1 cells) [nM] | GI50 (BaF3 PIM2 cells) [µM] | Ki (PIM1) [nM] | EC50 (MM1.S cells) [nM]
Nc1sc(-c2ccc(Cl)cc2)nc1C(=O)Nc1cnccc1N1CCC[C@H](N)C1 [Example 12, (S)-5-amino-N-(4-(3-aminopiperidin-1-yl)pyridin-3-yl)-2-(4-chlorophenyl)thiazole-4-carboxamide] | 0.072 | 1.06 | 2300 | 4.2 | 0.172 | 6800
Nc1sc(-c2ccccc2OC(F)(F)F)nc1C(=O)Nc1cnccc1N1CCC[C@H](N)C1 [Example 15] | 1.89 | 16.4 | 945 | 3.3 | 1.93 | 4400
CC(C)(C)c1nc(C(=O)Nc2cnccc2N2CCC[C@H](N)C2)c(N)s1 [Example 16, (S)-5-amino-N-(4-(3-aminopiperidin-1-yl)pyridin-3-yl)-2-tert-butylthiazole-4-carboxamide] | 2.26 | 3.83 | 926 | > 20 | 1.56 | 10000 to 20000
Nc1sc(-c2c(F)cccc2F)nc1C(=O)Nc1cnccc1Cl [Example 17, 5-amino-N-(4-chloropyridin-3-yl)-2-(2,6-difluorophenyl)thiazole-4-carboxamide] | 6.81 | 76.5 | > 20000 | > 20 | 14 | > 20000
CN(C)C(=O)c1ccc(F)c(-c2nc(C(=O)Nc3cnccc3N3CCC[C@H](N)C3)c(N)s2)c1 [Example 18, (S)-5-amino-N-(4-(3-aminopiperidin-1-yl)pyridin-3-yl)-2-(5-(dimethylcarbamoyl)-2-fluorophenyl)thiazole-4-carboxamide] | 0.033 | 0.596 | 257 | 12.3 | 0.096 | 767
CN(C)Cc1nc(C(=O)Nc2cnccc2N2CCC[C@H](N)C2)c(N)s1 [Example 21, (S)-5-amino-N-(4-(3-aminopiperidin-1-yl)pyridin-3-yl)-2-((dimethylamino)methyl)thiazole-4-carboxamide] | 138 | 242 | > 20000 | > 20 | 420 | > 20000
NC(=O)c1cccc(-c2nc(C(=O)Nc3cnccc3N3CCC[C@H](N)C3)c(N)s2)c1 [Example 22, (S)-5-amino-N-(4-(3-aminopiperidin-1-yl)pyridin-3-yl)-2-(3-carbamoylphenyl)thiazole-4-carboxamide] | 0.052 | 0.495 | 520 | > 20 | 0.054 | 4700
Nc1sc(-c2c(F)cccc2F)nc1C(=O)Nc1cnccc1N1CCCCC1 [Example 24, 5-amino-2-(2,6-difluorophenyl)-N-(4-(piperidin-1-yl)pyridin-3-yl)thiazole-4-carboxamide] | 1.76 | 16.3 | > 14000 | > 20 | 0.43 | 20000
Cc1ccc(-c2nc(C(=O)Nc3cnccc3N3CCC[C@H](N)C3)c(N)s2)cc1 [Example 30, (S)-5-amino-N-(4-(3-aminopiperidin-1-yl)pyridin-3-yl)-2-(4-tolylthiazole)-4-carboxamide] | 0.033 | 0.429 | 52.2 | > 5 | 0.076 | 163
Cc1cccc(-c2nc(C(=O)Nc3cnccc3N3CCC[C@H](N)C3)c(N)s2)c1 [Example 31, (S)-5-amino-N-(4-(3-aminopiperidin-1-yl)pyridin-3-yl)-2-(3-tolylthiazole)-4-carboxamide] | 0.023 | 0.339 | 66.5 | 2.3 | 0.0464 | 1300
CCNC(=O)Nc1ccc(-c2nc(C(=O)Nc3cnccc3N3CCC[C@H](N)C3)c(N)s2)cc1 [Example 32, (S)-5-amino-N-(4-(3-aminopiperidin-1-yl)pyridin-3-yl)-2-(4-(3-ethylureido)phenyl)thiazole-4-carboxamide] | 0.022 | 0.127 | 1700 | > 20 | 0.054 | 650
COc1ccccc1-c1nc(C(=O)Nc2cnccc2N2CCC[C@H](N)C2)c(N)s1 [Example 39, (S)-5-amino-N-(4-(3-aminopiperidin-1-yl)pyridin-3-yl)-2-(2-methoxyphenyl)thiazole-4-carboxamide] | 0.143 | 1.69 | 375 | 5.1 | 0.306 | 3200

Results, then the molecule that gave them:

Ki (PIM3) [nM] | Ki (PIM2) [nM] | GI50 (BaF3 PIM1 cells) [nM] | GI50 (BaF3 PIM2 cells) [µM] | Ki (PIM1) [nM] | EC50 (MM1.S cells) [nM] | Compound
0.031 | 0.153 | 2500 | 1.8 | 0.034 | 137 | Nc1sc(-c2cc(Cl)ccc2F)nc1C(=O)Nc1cnccc1N1CCC[C@H](N)C1 [Example 23, (S)-5-amino-N-(4-(3-aminopiperidin-1-yl)pyridin-3-yl)-2-(5-chloro-2-fluorophenyl)thiazole-4-carboxamide]
0.022 | 0.15 | 28.2 | 2.4 | 0.014 | 148 | CCOc1ccc(F)c(-c2nc(C(=O)Nc3cnccc3N3CCC[C@H](N)C3)c(N)s2)c1F [Example 26, (S)-5-amino-N-(4-(3-aminopiperidin-1-yl)pyridin-3-yl)-2-(3-ethoxy-2,6-difluorophenyl)thiazole-4-carboxamide]
0.05 | 0.248 | 75.7 | 3.9 | 0.04 | 558 | CCCOc1ccc(F)c(-c2nc(C(=O)Nc3cnccc3N3CCC[C@H](N)C3)c(N)s2)c1F [Example 27, (S)-5-amino-N-(4-(3-aminopiperidin-1-yl)pyridin-3-yl)-2-(3-propyloxy-2,6-difluorophenyl)thiazole-4-carboxamide]
0.118 | 0.434 | 135 | 2.8 | 0.102 | 1900 | CCCCOc1ccc(F)c(-c2nc(C(=O)Nc3cnccc3N3CCC[C@H](N)C3)c(N)s2)c1F [Example 28, (S)-5-amino-N-(4-(3-aminopiperidin-1-yl)pyridin-3-yl)-2-(3-butyloxy-2,6-difluorophenyl)thiazole-4-carboxamide]
0.07 | 0.565 | 48.9 | 4.3 | 0.058 | 1600 | CC(C)Oc1ccc(F)c(-c2nc(C(=O)Nc3cnccc3N3CCC[C@H](N)C3)c(N)s2)c1F [Example 29, (S)-5-amino-N-(4-(3-aminopiperidin-1-yl)pyridin-3-yl)-2-(3-isopropyloxy-2,6-difluorophenyl)thiazole-4-carboxamide]
0.022 | 0.0957 | 19.1 | > 2.5 | 0.012 | 56.8 | COc1cc(F)c(-c2nc(C(=O)Nc3cnccc3N3CCC[C@H](N)C3)c(N)s2)c(F)c1 [Example 34, (S)-5-amino-N-(4-(3-aminopiperidin-1-yl)pyridin-3-yl)-2-(2,6-difluoro-4-methoxyphenyl)thiazole-4-carboxamide]
1.13 | 5.28 | 29.3 | 2 | 0.709 | 2300 | COc1ccc(-c2nc(C(=O)Nc3cnccc3N3CCC[C@H](N)C3)c(N)s2)c(F)c1 [Example 35, (S)-5-amino-N-(4-(3-aminopiperidin-1-yl)pyridin-3-yl)-2-(2-fluoro-4-methoxyphenyl)thiazole-4-carboxamide]
0.037 | 0.725 | 164 | 6.5 | 0.129 | 2500 | Cc1ccccc1-c1nc(C(=O)Nc2cnccc2N2CCC[C@H](N)C2)c(N)s1 [Example 40, (S)-5-amino-N-(4-(3-aminopiperidin-1-yl)pyridin-3-yl)-2-o-tolylthiazole-4-carboxamide]
0.022 | 0.208 | 69 | 3.9 | 0.049 | 2000 | Nc1sc(-c2cc(F)ccc2F)nc1C(=O)Nc1cnccc1N1CCC[C@H](N)C1 [Example 41, (S)-5-amino-N-(4-(3-aminopiperidin-1-yl)pyridin-3-yl)-2-(2,5-difluorophenyl)thiazole-4-carboxamide]

— US8435976B2, “4-substituted pyridin-3-yl-carboxamide compounds and methods of use” (F. Hoffmann-La Roche, priority 2009, dated 2013)
